ChEMBL document CHEMBL1201862, “PubChem BioAssay data set” (2004)
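Values below derive from 48-hour exposures of cells grown in 96-well plates, with endpoints linearly interpolated between the two concentrations bracketing the appropriate inhibition level. GI50 is the concentration that inhibits growth by half.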 Active and inactive are the calls of the source. Cut-off read from the data, not from the text of the source: active = GI50 up to about 1.1 µM and inactive = higher.

Assays:
Experiment in all cases: DTP human tumour cell line panel, 48 h
NCI-H460 = tested on: NCI-H460
HOP-62 = tested on: HOP-62
Malme-3M = tested on: Malme-3M
A549 = tested on: A549
SK-MEL-2 = tested on: SK-MEL-2
BT-549 = tested on: BT-549
SK-MEL-5 = tested on: SK-MEL-5
HL-60 = tested on: HL-60
UO-31 = tested on: UO-31
HOP-92 = tested on: HOP-92
SF-295 = tested on: SF-295
K562 = tested on: K562
786-0 = tested on: 786-0
RXF 393 = tested on: RXF 393
SNB-19 = tested on: SNB-19
NCI-H522 = tested on: NCI-H522
SK-OV-3 = tested on: SK-OV-3
UACC-62 = tested on: UACC-62
CAKI-1 = tested on: CAKI-1

Compound | GI50 (NCI-H460) | GI50 (HOP-62) | GI50 (Malme-3M) | GI50 (A549) | GI50 (SK-MEL-2) | GI50 (BT-549) | GI50 (SK-MEL-5) | GI50 (HL-60) | GI50 (UO-31) | GI50 (HOP-92) | GI50 (SF-295) | GI50 (K562) | GI50 (786-0) | GI50 (RXF 393) | GI50 (SNB-19) | GI50 (NCI-H522) | GI50 (SK-OV-3) | GI50 (UACC-62) | GI50 (CAKI-1)
O=C(NCc1cccnc1)NCc1cccnc1 | > 100 µM (inactive) | > 100 µM (inactive) | > 100 µM (inactive) | > 100 µM (inactive) | > 100 µM (inactive) | > 100 µM (inactive) | > 100 µM (inactive) | > 100 µM (inactive) | > 100 µM (inactive) | > 100 µM (inactive) | > 100 µM (inactive) | > 100 µM (inactive) | > 100 µM (inactive) | > 100 µM (inactive) | > 100 µM (inactive) | > 100 µM (inactive) | > 100 µM (inactive) | > 100 µM (inactive) | > 100 µM (inactive)
COc1ccc(C(CC(C)=O)c2c(O)c3ccccc3oc2=O)cc1OC (stereo not drawn) | > 100 µM (inactive) | > 100 µM (inactive) | > 100 µM (inactive) | > 100 µM (inactive) | > 100 µM (inactive) | > 100 µM (inactive) | > 100 µM (inactive) | > 100 µM (inactive) | > 100 µM (inactive) | > 100 µM (inactive) | > 100 µM (inactive) | > 100 µM (inactive) | > 100 µM (inactive) | > 100 µM (inactive) | > 100 µM (inactive) | > 100 µM (inactive) | > 100 µM (inactive) | > 100 µM (inactive) | > 100 µM (inactive)
CCOC(=O)c1sc2ncnc(N)c2c1C | > 100 µM (inactive) | 80 µM (inactive) | 82.8 µM (inactive) | > 100 µM (inactive) | > 100 µM (inactive) | > 100 µM (inactive) | 36.8 µM (inactive) | > 100 µM (inactive) | 82.4 µM (inactive) | 8.99 µM (inactive) | 79.4 µM (inactive) | > 100 µM (inactive) | 53.8 µM (inactive) | 22.8 µM (inactive) | 63.7 µM (inactive) | 59.3 µM (inactive) | > 100 µM (inactive) | 35.3 µM (inactive) | 35.9 µM (inactive)
N#Cc1c(Cl)nc2ccccc2c1N=[N+]=[N-] | 5.19 µM (inactive) | 17.3 µM (inactive) | 2.18 µM (inactive) | 16.6 µM (inactive) | 1.91 µM (inactive) | 1.8 µM (inactive) | 14.2 µM (inactive) | 1.8 µM (inactive) | 4.71 µM (inactive) | 1.7 µM (inactive) | 8.55 µM (inactive) | 0.705 µM (active) | 2.8 µM (inactive) | 1.44 µM (inactive) | 14.8 µM (inactive) | 1.99 µM (inactive) | 15.5 µM (inactive) | 2.63 µM (inactive) | 1.68 µM (inactive)
Cc1cc(C)nc(SC(C)C(=O)N/N=C/c2ccc(OCc3ccccc3)cc2)n1 (stereo not drawn) | 17.1 µM (inactive) | 36 µM (inactive) | 22.3 µM (inactive) | 31.3 µM (inactive) | 21.6 µM (inactive) | 26.5 µM (inactive) | 7.03 µM (inactive) | 14.5 µM (inactive) | 32.1 µM (inactive) | 28.6 µM (inactive) | 19.1 µM (inactive) | 6.11 µM (inactive) | 36.6 µM (inactive) | 19.1 µM (inactive) | 48.5 µM (inactive) | 15.3 µM (inactive) | 41.5 µM (inactive) | 14.5 µM (inactive) | 20.5 µM (inactive)
CCCCCC1=C/C(=C\c2[nH]c(-c3ccc[nH]3)cc2OC)N=C1C | 0.0124 µM (active) | 0.0111 µM (active) | 0.0448 µM (active) | 0.0167 µM (active) | < 0.01 µM (active) | 0.0324 µM (active) | 0.0316 µM (active) | < 0.01 µM (active) | 0.011 µM (active) | < 0.01 µM (active) | < 0.01 µM (active) | < 0.01 µM (active) | < 0.01 µM (active) | 0.0115 µM (active) | 0.0562 µM (active) | < 0.01 µM (active) | 0.25 µM (active) | < 0.01 µM (active) | < 0.01 µM (active)
CCCNC1=C2CC(C)CC(OC)[C@@H](O)[C@H](C)/C=C(\C)C(OC(N)=O)C(OC)/C=C\C=C(/C)C(=O)NC(=CC1=O)C2=O (stereo partly drawn) | 0.0685 µM (active) | 0.245 µM (active) | 0.0612 µM (active) | 0.0847 µM (active) | 0.129 µM (active) | 12.3 µM (inactive) | 0.0637 µM (active) | 0.214 µM (active) | 2.94 µM (inactive) | 0.124 µM (active) | 0.222 µM (active) | 0.141 µM (active) | 0.443 µM (active) | 1.56 µM (inactive) | 0.637 µM (active) | 0.00678 µM (active) | 0.101 µM (active) | 0.054 µM (active) | 11.5 µM (inactive)
